Where a name gives a salt, the structure may show the parent alone. Read-outs that look alike come from different tables or passages of the source.
How the values were obtained:
[1] = Foam height test; format: physicochemical; settings: for foam height, 30 sec / foam height, 1 min / foam height, 2 min / foam height, Initial Reading: 0.5 grams in 49.5 ml DI water; for foam height, 30 sec / foam height, 1 min / foam height, 2 min: 100 ml graduated cylinder; for foam height, Initial Reading: read in 100 ml graduated cylinder with 1 ml line increments; for Type of Foam: 0.5 grams of active in 49.5 ml DI water, blended 1 minute
Method: The testing was performed on samples containing octenidine dihydrochloride, octenidine distearate, PHMB HCl and the chloride salts benzalkonium chloride, benzethonium chloride, and cetylpyridinium chloride.
A 250 ml beaker was filed with 49.5 ml of deionized (DI) water for each sample. Then, 0.5 grams of the active was added to the beaker. Each solution was blended with a Bamix® wand homogenizer/mixer for 1 minute. The solution was then poured into a 100 ml graduated cylinder with 1 ml line increments. The height of the foam was documented at an initial, 30 second, 1 minute, and 2 minute time point.

[2] = tested on: EpiDerm™ Skin Model (EPI-200); assay: MatTek EpiDerm MTT Viability Assay (dermal irritancy); format: cell-based, human
Method: The MatTek EpiDerm™ MTT Viability Assay (MatTek Corp.) was utilized to determine the dermal irritancy and toxicology of octenidine distearate and octenidine dihydrochloride. The assay was performed using the EpiDerm™ Skin Model (EPI-200) as well as the Methyl thiazole tetrazolium (MT) Kit (MTT-100). The EpiDerm™ Skin Model closely parallels human skin, thus providing a useful in vitro method to assess dermal irritancy and toxicology.
Negative controls (treated with tissue culture water) were tested at 4 hours only. Following treatment, the viability of the tissues was determined using MTT uptake and reduction. The absorbance of each sample was measured at 540 nm using a reference wavelength of 690 nm. The viability was then expressed as a percent of Negative Control or Vehicle Control values. The mean percent viability for each time point was used to calculate and ET50, which represents the time at which the EpiDerm™ tissue viability was reduced 50%, compared to Negative Control or Vehicle Control tissues. The ET50 scores were converted to an irritancy classification.
MTT Reduction: 704 μl of mineral oil were heated at 70 C for 10 minutes.
Before use, tissues were incubated (37° C.±1 C, 5%±1% CO2) with assay medium (MatTek) for a one-hour equilibration. Equilibration medium was replaced with fresh medium before dosing.
(§1) The test articles were diluted as described in the sample preparation above. 100 μl of the test article dilution were mixed with 1 ml of MTT solution (1 mg/ml MTT diluted in Dulbecco's Modified Eagle's Medium (DMEM). A negative control (100 μl of tissue culture water) and a vehicle control (100 μl of mineral oil) were tested concurrently. The solutions were incubated at room temperature in the dark for 60 minutes. After incubation, the solutions were visually inspected for purple coloration, which is a positive indication that the test article reduced MTT. Since tissue viability is based on MTT reduction, direct reduction by a test article can exaggerate viability, making a test article seem less irritating that it really is.
100 μl of the test article dilutions were applied to the top of each EpiDerm™ tissue. The test articles remained in contact with the EpiDerm™ tissue for 1, 4 and 24 hours. Vehicle controls (TCH20 and mineral oil) for the test articles were tested at 4 hours. A positive control (1% Triton® X-100) was tested at 4 and 9 hours. […]
(§2) At the end of the selected exposure periods, each EpiDerm™ tissue was rinsed with phosphate buffered saline (PBS) and transferred to a 24-well plate containing 300 μl of MTT solution (1 mg/ml MTT in DMEM). […] An aliquot of the extracted MTT formazan was measured at 540 nm using a plate reader (pQuant Plate Reader, Bio-Tek Instruments, Winooski, Vt.), subtracting the absorbance at a reference wavelength of 690 nm.

[3] = tested on: EpiOcular™ Tissue Model (OCL-200); assay: MatTek EpiOcular MTT Viability Assay (ocular irritancy); format: cell-based, human
Method: The MatTek EpiOcular™ MTT Viability Assay (MatTek Corp.) was utilized to assess ocular irritancy and toxicology of octenidine distearate and octenidine dihydrochloride. The assay was performed using the MatTek EpiOcular™ Tissue Model (OCL-200) as well as the Methyl thiazole tetrazolium (MT) Kit (MT-100). The EpiOcular™ Tissue Model closely parallels human ocular tissue, thus providing a useful in vitro method to assess ocular irritancy and toxicology.
MTT Reduction: 704 μl of mineral oil were heated at 70° C. for 10 minutes.
0.3% Triton® X-100 (MatTek) (clear liquid) was used as a positive control. Tissue culture water (TCH20) (Sigma) (clear liquid) was used as a negative control. Mineral oil (Sigma) (clear liquid) was used as a vehicle control.
Before use, tissues were incubated (37° C.±1° C., 5%±1% CO2) with assay medium (MatTek) for a one-hour equilibration. Equilibration medium was replaced with fresh medium before dosing.
as §1, with “is. […]” for “is.”
as §2, with “EpiOcular™” for “EpiDerm™”, “(PBS), soaked for 10 minutes in assay medial” for “(PBS)”, “(μQuant” for “(pQuant”
The mean absorbance value for each time point was calculated from the optical density (OD) of the duplicate samples and expressed as percent viability for each sample using the following formula: % viability=100×(OD sample/OD negative control or vehicle control) The ET50, the time at which the EpiOcular™ tissue viability was reduced 50% compared to control tissues, was then determined using a macro in Microsoft Excel 5.0, provided by MatTek, using the equation: V=a+b log t Where V=percent viability, t=time in hours, and a and b are constants that can be determined by using the viability data for two different exposure times of the text article to the tissue.

Compound: CCCCCCCCN=c1ccn(CCCCCCCCCCn2ccc(=NCCCCCCCC)cc2)cc1 [Octenidine HCl, Octenidine dihydrochloride]
- foam height, 30 sec [1]: 80
- foam height, 1 min [1]: 78
- foam height, 2 min [1]: 70
- foam height, Initial Reading [1]: 86
- Type of Foam [1]: Slightly loose
- ET50 ([2]; human, 1.25 % w/v): 1.1 h
- Irritancy Classification [3]: Severe

Compound: CCCCCCCCCCCCCCCCCC(=O)O.CCCCCCCCCCCCCCCCCC(=O)O.CCCCCCCCN=c1ccn(CCCCCCCCCCn2ccc(=NCCCCCCCC)cc2)cc1 [Octenidine distearate, octenidine distearate]
- foam height, 30 sec [1]: 60
- foam height, 1 min [1]: 56
- foam height, 2 min [1]: 52
- foam height, Initial Reading [1]: 70
- Type of Foam [1]: Loose
- ET50 [2]: >24.0 h
- ET50 (hrs) [2]: greater than 24.0 hrs
- Irritancy Classification [2]: Non-Irritating
- ET50 [3]: >256.0 min
- ET50 (min) [3]: greater than 256.0 min
- Irritancy Classification [3]: Non-Irritating, minimal

Source: US9687432B2, “Antimicrobial bispyridine amine compositions and uses” (LONZA INC., priority 2012, dated 2017)
